From patent US20090054523A1, “Use of a Fatty Acid Composition Containing DHA for the Production of a Medical Product or a Food Stuff for the Treatment of Amyloidos-Related Diseases” (priority 2005, published 2009) come the findings set out here.

In this assay the test system is secondary amyloidosis (spleen amyloid). Briefly: Secondary amyloidosis induced by silver nitrate injections, spleen amyloid by Congo red. The format is in vivo, Female NMRI mice. The method, then:
Female NMRI mice were injected once a week subcutaneously with 0.3 ml of a 1% silver nitrate solution for 25 weeks. The animals were fed high fat diet containing mainly sunflower oil with a fat content of 55% of total daily calories. Three groups each consisting of 6 animals were given different omega-3 fatty acid concentrates (intervention group) or standard olive oil containing about 78% oleic acid (oleic acid group). In the intervention groups 15% of the fat content was exchanged with either 97% docosahexaenoic acid (DHA group) or EPAX1050TG containing 10% of EPA and 50% of DHA (EPAX group).
After study completion the mice were sacrificed and spleens were collected.
The air-dried smear material and 10-μm-thick sections from the formalin fixed material were stained for amyloid with specific dye alkaline Congo red. The slides were examined in cross-polarized light for bright green birefringence, specific for amyloid. Evaluation of the material was performed on coded slides.

For the compound `CC/C=C\C/C=C\C/C=C\C/C=C\C/C=C\C/C=C\CCC(=O)O` [DHA, (all-Z omega-3)-4,7,10,13,16,19-docosahexaenoic acid], the “amyloid appeared in the spleen” value (25 weeks of weekly s.c. silver nitrate, 15% of fat content exchanged) is listed as “one out of six”. Moreover, the “animals that developed amyloid after silver nitrate injections” value (after 25 weeks of treatment) is on record as “one”. Further, the animals with amyloid (spleen, 25 weeks of weekly s.c. silver nitrate, 15% of tot. fat of high fat diet exchanged) is given as 1/6 animals.
